“Also recorded” adds a separate entry of the source. Active and inactive are the calls of the source.
What was measured:
Cytochrome P450 2C19 = Cytochrome P450 2C19 (Homo sapiens, UniProt P33261); assay: Cytochrome panel assay with activity outcomes. Panel member name: p450-cyp2c19 Compounds with AC50 equal or less than 10 uM are considered active; format: functional
Cytochrome P450 1A2 [1] = target: T1, Cytochrome P450 1A2 (Homo sapiens, UniProt P05177);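 also: PubChem cytochrome P450 panel assay, CYP1A2 panel member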
T1 sequence (P05177 whole entry): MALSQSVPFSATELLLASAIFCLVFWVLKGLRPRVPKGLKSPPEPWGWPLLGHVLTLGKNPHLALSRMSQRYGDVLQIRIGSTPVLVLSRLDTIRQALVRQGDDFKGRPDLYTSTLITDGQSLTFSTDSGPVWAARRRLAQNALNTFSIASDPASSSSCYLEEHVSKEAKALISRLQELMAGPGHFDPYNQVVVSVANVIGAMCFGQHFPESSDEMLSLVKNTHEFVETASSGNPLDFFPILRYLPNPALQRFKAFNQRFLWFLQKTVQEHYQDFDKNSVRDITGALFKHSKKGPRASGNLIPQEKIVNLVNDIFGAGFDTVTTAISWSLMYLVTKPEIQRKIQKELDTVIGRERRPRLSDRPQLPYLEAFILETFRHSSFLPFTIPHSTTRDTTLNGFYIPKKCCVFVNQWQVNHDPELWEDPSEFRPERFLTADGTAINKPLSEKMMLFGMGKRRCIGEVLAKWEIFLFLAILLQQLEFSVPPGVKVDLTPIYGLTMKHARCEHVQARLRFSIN

[2] = target: T2, Short transient receptor potential channel 4 (Mus musculus, UniProt Q9QUQ5); assay: SAR Analysis for the identification of selective inhibits of the transient receptor potential cation channel C4 (TRPC4): Automated Electrophysiology. [Related pubchem assays (depositor defined):AID2256]; format: functional
T2 sequence (Q9QUQ5 whole entry): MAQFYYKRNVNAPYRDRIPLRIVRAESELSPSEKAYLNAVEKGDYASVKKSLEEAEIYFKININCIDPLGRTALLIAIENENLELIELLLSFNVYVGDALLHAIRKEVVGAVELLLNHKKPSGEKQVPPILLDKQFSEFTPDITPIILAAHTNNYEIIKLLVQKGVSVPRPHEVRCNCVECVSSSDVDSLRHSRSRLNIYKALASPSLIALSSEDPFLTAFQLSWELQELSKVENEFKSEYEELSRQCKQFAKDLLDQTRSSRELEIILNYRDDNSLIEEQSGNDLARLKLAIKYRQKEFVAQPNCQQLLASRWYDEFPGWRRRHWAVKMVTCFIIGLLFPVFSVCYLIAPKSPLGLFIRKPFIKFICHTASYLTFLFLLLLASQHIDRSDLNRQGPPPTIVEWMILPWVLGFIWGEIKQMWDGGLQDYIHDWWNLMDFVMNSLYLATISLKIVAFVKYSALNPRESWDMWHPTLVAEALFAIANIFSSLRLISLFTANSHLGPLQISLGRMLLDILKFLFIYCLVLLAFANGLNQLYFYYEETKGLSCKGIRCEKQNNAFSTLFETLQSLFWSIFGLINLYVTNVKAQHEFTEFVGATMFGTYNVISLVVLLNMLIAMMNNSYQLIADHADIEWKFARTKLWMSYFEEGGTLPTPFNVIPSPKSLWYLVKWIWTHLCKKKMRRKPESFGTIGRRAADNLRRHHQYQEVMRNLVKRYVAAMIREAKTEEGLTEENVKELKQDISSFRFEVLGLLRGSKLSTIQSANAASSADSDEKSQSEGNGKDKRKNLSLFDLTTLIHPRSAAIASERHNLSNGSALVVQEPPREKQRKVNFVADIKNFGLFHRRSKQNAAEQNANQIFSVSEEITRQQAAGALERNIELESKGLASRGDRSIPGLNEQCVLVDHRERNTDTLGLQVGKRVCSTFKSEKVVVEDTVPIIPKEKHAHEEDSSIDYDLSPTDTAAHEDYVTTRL

[3] = target: T2, Short transient receptor potential channel 4; assay: mouse TRPC4 channel inhibitors, dose response, cell-based, HEK293 TRPC4/mu-opioid, Fluo-4 calcium (AID 434942); format: functional;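 also: potency of inhibitors blocking the TRPC4 calcium response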
HEK293 [4] = assay: cytotoxicity in HEK293T NF-kB-Luc cells, SAR follow-up, cytotoxicity control for NF-kB activator project, cell-based, resazurin fluorescence (AID 493251); format: functional; conditions: Homo sapiens
Jurkat = assay: SAR Analysis of small molecule inhibitors of […] specific antigen receptor-induced NF-kB activation in a Jurkat cell line using a luminescence assay - Set 3. [Related pubchem assays (depositor defined):AID435022, AID435025, AID465]; format: functional, cell-based; conditions: Homo sapiens
HEK293 [5] = assay: SAR Analysis of small molecule inhibitors of B-cell specific antigen receptor-induced NF-kB activation in a HEK-293T cell line using a luminescence assay - Set 2. [Related pubchem assays (depositor defined):AID435022, AID435025, AID489021]; format: functional, cell-based; conditions: Homo sapiens
Cytochrome P450 2D6 [6] = target: T3, Cytochrome P450 2D6 (Homo sapiens, UniProt P10635); assay: qHTS Assay for Inhibitors and Substrates of Cytochrome P450 2D6. [Related pubchem assays: 410 ]; format: ADME; conditions: read-out: Potency
T3 sequence (P10635 whole entry): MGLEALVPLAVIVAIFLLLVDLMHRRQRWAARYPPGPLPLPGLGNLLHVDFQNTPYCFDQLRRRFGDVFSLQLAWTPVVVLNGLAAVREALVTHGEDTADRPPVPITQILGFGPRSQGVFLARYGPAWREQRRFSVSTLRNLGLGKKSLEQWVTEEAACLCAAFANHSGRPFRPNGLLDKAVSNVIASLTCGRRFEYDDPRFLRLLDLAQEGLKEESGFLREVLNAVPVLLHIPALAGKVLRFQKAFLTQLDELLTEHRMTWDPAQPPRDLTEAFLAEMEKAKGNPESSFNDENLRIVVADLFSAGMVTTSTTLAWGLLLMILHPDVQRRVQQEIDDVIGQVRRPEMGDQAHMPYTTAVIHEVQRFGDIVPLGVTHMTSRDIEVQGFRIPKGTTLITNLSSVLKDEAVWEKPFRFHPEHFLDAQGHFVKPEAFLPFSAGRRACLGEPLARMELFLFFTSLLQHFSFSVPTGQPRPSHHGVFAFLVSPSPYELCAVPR

Cytochrome P450 2D6 [7] = target: T3, Cytochrome P450 2D6
Cytochrome P450 3A4 [8] = target: T4, Cytochrome P450 3A4 (Homo sapiens, UniProt P08684);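 also: CYP3A4 tested as one member of a cytochrome P450 panel screen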
T4 sequence (P08684 whole entry): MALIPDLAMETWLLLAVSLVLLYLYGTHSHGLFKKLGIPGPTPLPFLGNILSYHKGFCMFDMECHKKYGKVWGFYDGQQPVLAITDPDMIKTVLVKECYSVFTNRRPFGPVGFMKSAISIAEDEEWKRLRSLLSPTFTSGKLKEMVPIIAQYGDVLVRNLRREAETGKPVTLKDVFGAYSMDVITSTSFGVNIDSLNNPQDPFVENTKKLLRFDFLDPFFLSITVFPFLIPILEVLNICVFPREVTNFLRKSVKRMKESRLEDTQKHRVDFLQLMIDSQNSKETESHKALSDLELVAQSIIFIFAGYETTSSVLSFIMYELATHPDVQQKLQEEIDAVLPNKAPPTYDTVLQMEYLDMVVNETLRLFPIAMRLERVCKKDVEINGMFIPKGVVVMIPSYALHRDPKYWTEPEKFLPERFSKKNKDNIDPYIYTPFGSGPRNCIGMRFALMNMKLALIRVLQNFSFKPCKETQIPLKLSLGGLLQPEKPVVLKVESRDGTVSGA

Cytochrome P450 1A2 [9] = target: T1, Cytochrome P450 1A2; remark: listed apart in the source
Cytochrome P450 2C9 = Cytochrome P450 2C9 (Homo sapiens, UniProt P11712)
Cytochrome P450 2C9, sequence (P11712 whole entry): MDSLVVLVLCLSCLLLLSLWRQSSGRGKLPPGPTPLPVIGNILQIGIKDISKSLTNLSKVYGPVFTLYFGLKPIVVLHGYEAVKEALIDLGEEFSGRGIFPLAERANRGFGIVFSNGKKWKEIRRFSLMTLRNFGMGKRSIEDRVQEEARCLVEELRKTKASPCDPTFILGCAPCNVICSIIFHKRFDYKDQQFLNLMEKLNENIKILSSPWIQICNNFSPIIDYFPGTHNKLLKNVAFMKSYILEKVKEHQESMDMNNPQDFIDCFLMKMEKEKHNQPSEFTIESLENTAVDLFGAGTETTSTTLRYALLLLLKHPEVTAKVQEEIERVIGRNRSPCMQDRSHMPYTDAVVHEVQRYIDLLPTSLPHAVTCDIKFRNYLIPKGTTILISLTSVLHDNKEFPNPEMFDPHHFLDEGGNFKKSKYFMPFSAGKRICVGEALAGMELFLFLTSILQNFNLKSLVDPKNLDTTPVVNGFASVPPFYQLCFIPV

Cytochrome P450 3A4 [10] = target: T4, Cytochrome P450 3A4; remark: listed apart in the source

Cytochrome P450 2C19, sequence (P33261 whole entry): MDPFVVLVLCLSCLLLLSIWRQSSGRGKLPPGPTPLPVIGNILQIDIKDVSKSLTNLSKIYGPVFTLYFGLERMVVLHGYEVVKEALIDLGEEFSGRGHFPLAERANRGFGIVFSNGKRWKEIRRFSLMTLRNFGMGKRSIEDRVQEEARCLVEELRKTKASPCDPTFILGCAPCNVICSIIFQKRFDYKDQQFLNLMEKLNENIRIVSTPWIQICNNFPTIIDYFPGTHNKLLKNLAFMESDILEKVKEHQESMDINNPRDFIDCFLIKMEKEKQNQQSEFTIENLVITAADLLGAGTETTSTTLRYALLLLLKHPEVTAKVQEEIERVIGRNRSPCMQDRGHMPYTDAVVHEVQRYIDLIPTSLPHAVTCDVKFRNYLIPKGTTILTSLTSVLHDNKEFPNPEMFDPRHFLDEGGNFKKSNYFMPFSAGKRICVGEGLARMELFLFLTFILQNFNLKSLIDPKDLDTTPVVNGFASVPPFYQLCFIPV

## COc1cc2nc(N3CCN(C(=O)[C@@H]4COc5ccccc5O4)CC3)nc(N)c2cc1OC.CS(=O)(=O)O
Cytochrome P450 2C19; read-out: AC50
  AC50: 0.501 µM (inconclusive)
Cytochrome P450 1A2 [1]
  AC50: inactive

## O=C(Cc1ccccc1)Nc1ccccc1Sc1ccccc1
[2]
  IC50: 38.7 µM (active)
[3]
  EC50: 1.88 µM (active)

## CCCNC(=O)CSCc1nc(-c2ccc(OCC)cc2)oc1C
HEK293 [4]
  IC50: > 80 µM (inactive)
Jurkat
  IC50: > 80 µM (inactive)
HEK293 [5]
  IC50: 74.7 µM (inactive)

## N[C@H](CCC(=O)O)C(=O)O [D-GLUTAMATE]
Cytochrome P450 2D6 [6]
  AC50: 10 µM (not active)
Cytochrome P450 2C19
  AC50: inactive
Cytochrome P450 2D6 [7]
  AC50: inactive; also recorded: inconclusive
Cytochrome P450 3A4 [8]
  AC50: 25.1 µM (inconclusive)
Cytochrome P450 1A2 [9]
  AC50: 31.6 µM (inconclusive)
Cytochrome P450 1A2 [1]
  AC50: inactive
Cytochrome P450 2C9
  AC50: inactive
Cytochrome P450 3A4 [10]
  AC50: inactive

From ChEMBL document CHEMBL1201862, “PubChem BioAssay data set” (2004)
